≈ marks a conversion by molar mass, not a printed value.
Tests used:
[1] = Solubility to water (37° C.); format: physicochemical; details: for Water-solubility (in words) / solubility: 37° C., water; for solubility: Table 1
[2] = Moisture adsorption/desorption (microbalance, automatic vapor adsorption apparatus); format: physicochemical; details: for Moisture adsorption/desorption: change in weight / stability: crystals about 20 mg, relative humidities 10 to 90% RH
Description: Compound (1), compound (a), and salts of compound (a) prepared in Example 1, Referential Example 1, and Comparative Example 1, respectively, were evaluated in terms of moisture adsorption/desorption. Specifically, the amount of water adsorbed on or desorbed from each compound was determined through subjecting crystals (about 20 mg) of each compound to a microbalance (automatic vapor adsorption apparatus) and measuring time-elapsed change in weight at relative humidities (RH) ranging from 10 to 90%.

VLA-4 = VLA-4 (Homo sapiens, UniProt P05556+P13612); experiment: VLA-4 inhibitory activity; format: binding; details: compared with compound (a)
Chain of VLA-4 (P13612 34-1032): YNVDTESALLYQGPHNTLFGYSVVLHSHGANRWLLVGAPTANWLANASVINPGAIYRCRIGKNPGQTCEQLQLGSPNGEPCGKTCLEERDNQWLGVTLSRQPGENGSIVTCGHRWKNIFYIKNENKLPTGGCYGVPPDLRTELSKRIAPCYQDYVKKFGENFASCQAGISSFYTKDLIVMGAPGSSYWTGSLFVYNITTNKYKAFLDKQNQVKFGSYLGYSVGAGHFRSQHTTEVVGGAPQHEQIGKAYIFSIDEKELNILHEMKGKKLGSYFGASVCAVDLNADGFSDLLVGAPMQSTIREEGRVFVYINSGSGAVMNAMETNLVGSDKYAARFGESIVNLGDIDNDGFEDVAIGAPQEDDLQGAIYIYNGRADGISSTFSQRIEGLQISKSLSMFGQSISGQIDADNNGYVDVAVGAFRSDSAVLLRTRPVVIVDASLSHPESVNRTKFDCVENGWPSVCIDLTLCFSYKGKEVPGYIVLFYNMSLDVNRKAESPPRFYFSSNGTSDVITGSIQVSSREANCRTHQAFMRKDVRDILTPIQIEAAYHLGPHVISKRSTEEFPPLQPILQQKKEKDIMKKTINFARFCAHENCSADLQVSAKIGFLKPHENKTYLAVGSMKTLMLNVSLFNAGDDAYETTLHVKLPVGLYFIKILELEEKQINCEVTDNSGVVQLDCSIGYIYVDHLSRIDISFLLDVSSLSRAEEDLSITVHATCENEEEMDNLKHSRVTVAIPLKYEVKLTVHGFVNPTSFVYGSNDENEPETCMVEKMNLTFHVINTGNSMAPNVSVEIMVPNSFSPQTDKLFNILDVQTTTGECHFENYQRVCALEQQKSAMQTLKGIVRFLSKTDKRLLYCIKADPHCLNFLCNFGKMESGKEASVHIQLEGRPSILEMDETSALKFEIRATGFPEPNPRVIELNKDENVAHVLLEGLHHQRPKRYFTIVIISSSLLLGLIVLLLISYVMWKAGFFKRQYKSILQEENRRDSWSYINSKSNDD
Chain of VLA-4 (P05556 21-798): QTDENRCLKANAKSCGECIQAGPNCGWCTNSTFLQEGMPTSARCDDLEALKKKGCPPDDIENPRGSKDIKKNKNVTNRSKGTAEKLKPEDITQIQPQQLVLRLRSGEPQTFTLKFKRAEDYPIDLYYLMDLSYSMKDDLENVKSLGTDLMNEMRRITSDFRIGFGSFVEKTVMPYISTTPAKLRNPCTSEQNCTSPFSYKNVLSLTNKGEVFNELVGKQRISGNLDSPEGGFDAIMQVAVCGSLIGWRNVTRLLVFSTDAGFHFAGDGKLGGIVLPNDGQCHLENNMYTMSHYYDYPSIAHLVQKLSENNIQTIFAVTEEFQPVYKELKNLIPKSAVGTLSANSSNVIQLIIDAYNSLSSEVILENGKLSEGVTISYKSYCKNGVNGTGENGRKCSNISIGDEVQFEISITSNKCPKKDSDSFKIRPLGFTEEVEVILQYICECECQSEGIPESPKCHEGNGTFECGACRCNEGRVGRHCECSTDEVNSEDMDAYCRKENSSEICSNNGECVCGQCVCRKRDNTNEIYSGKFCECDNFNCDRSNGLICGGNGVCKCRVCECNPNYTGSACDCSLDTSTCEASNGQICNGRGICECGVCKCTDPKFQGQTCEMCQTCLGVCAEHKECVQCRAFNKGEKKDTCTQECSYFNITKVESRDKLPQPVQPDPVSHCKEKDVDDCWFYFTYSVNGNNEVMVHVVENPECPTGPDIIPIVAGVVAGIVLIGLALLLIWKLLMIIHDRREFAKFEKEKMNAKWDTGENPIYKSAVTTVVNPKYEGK

Row | Water-solubility (in words) [1] | solubility [1] [µg/mL] | VLA-4 inhibitory activity (VLA-4) | Water Solubility ([1]; crystal forms of compound (1), manner similar to Test Example 2, Table 3) [µg/mL] | Storage stability (moisture adsorption/desorption property) of crystal forms ([2]; Type-I and Type-II crystals of compound (1), FIG. 5) | SMILES | Moisture adsorption/desorption: change in weight / stability [2]
1 | very high water-solubility | > 1000 | comparable to that of compound (a) |  |  | CO[C@H]1C[C@@H](CO[C@H]2CC[C@H](C(=O)[O-])CC2)N(C(=O)Cc2cc(Cl)c(NC(=O)c3cn(C)c4ccccc34)cc2Cl)C1.[Na+] [Compound (1), sodium trans-4-[1-[2,5-dichloro-4-[(1-methyl-1H-3-indolylcarbonyl)amino]phenylacetyl]-(4S)-methoxy-(2S)-pyrrolidinylmethoxy]cyclohexanecarboxylate pentahydrate] | no change in weight under typical humidity conditions
2 | considerably low water-solubility | 0.653 (≈ 1.06 µM) |  |  |  | CO[C@H]1C[C@@H](CO[C@H]2CC[C@H](C(=O)O)CC2)N(C(=O)Cc2cc(Cl)c(NC(=O)c3cn(C)c4ccccc34)cc2Cl)C1 [Compound (a), trans-4-[1-[2,5-dichloro-4-[(1-methyl-1H-3-indolylcarbonyl)amino]phenylacetyl]-(4S)-methoxy-(2S)-pyrrolidinylmethoxy]cyclohexanecarboxylic acid, reference compound] | change in weight at 40 to 60% RH
3 |  |  |  | >1000 | good storage stability | CO[C@H]1C[C@@H](CO[C@H]2CC[C@H](C(=O)[O-])CC2)N(C(=O)Cc2cc(Cl)c(NC(=O)c3cn(C)c4ccccc34)cc2Cl)C1.[Na+] [Type-I] | 

Reference: patent US7893279B2, “Cyclohexanecarboxylic acid compound” (Daiichi Pharmaceutical Co., Ltd., priority 2003, dated 2011)
